Assay results as given in patent publication US8889708B2 (Boehringer Ingelheim International GmbH, priority 2013, dated 2014).

Assays:
[1] = target: recombinant human DPPI (Homo sapiens (Human), UniProt P53634); experiment: Inhibition of Human DPPI (Cathepsin C); type: biochemical; settings: substrate Gly-Arg-AMC, 30 min room temperature
From the text: Inhibition of Human DPPI (Cathepsin C)
Materials: Microtiterplates (Optiplate-384 F) were purchased from PerkinElmer (Prod. No. 6007270). The substrate Gly-Arg-AMC was from Biotrend (Prod.-No. 808756 Custom peptide). Bovine serum albumin (BSA; Prod. No. A3059) and Dithiothreitol (DTT; Prod. No D0632) were from Sigma. TagZyme buffer was from Riedel-de-Haen (Prod.-No. 04269), NaCl was from Merck (Prod.-No. 1.06404.1000) and morpholinoethane sulfonic acid (MES), was from Serva (Prod.-No. 29834). The DPP1 inhibitor Gly-Phe-DMK was purchased from MP Biomedicals (Prod.-No. 03DK00625). The recombinant human DPPI was purchased from Prozymex. All other materials were of highest grade commercially available.
The following buffers were used: MES buffer: 25 mM MES, 50 mM NaCl, 5 mM DTT, adjusted to pH 6.0, containing 0.1% BSA; TAGZyme Buffer: 20 mM NaH2PO4, 150 mM NaCl adjusted to pH 6.0 with HCl
The recombinant human DPPI was diluted in TAGZyme buffer to 1 U/ml (38.1 μg/ml, respectively), and then activated by mixing in a 1:2 ratio with a Cysteamine aqueous solution (2 mM) and incubating for 5 min at room temperature.
Five uL test compound (final concentration 0.1 nM to 100 μM) in aqua bidest (containing 4% DMSO, final DMSO concentration 1%) were mixed with 10 μL of DPPI in MES buffer (final concentration 0.0125 ng/μL) and incubated for 10 min. Then, 5 μL of substrate in MES buffer (final concentration 50 μM) were added. The microtiter plates were then incubated at room temperature for 30 min. Then, the reaction was stopped by adding 10 μL of Gly-Phe-DMK in MES-buffer (final concentration 1 μM). The fluorescence in the wells was determined using a Molecular Devices SpectraMax M5 Fluorescence Reader (Ex 360 nm, Em 460 nm) or an Envision Fluorescence Reader (Ex 355 nm, Em 460 nm).
Each assay microtiter plate contained wells with vehicle controls (1% DMSO in bidest+0.075% BSA) as reference for non-inhibited enzyme activity (100% Ctl; high values) and wells with inhibitor (Gly-Phe-DMK, in bidest+1% DMSO+0.075% BSA, final concentration 1 μM) as controls for background fluorescence (0% Ctl; low values).
The analysis of the data was performed by calculating the percentage of fluorescence in the presence of test compound in comparison to the fluorescence of the vehicle control after subtracting the background fluorescence using the following formula: (RFU(sample)−RFU(background))*100/(RFU(control)−RFU(background))
Data from these calculations were used to generate IC50 values for inhibition of DPPI, respectively.

[2] = target: recombinant human Cathepsin K (Homo sapiens (Human), UniProt P43235); experiment: Inhibition of Human Cathepsin K; type: biochemical; settings: substrate Z-Gly-Pro-Arg-AMC, 60 min room temperature
Chain of recombinant human Cathepsin K (P43235 115-329): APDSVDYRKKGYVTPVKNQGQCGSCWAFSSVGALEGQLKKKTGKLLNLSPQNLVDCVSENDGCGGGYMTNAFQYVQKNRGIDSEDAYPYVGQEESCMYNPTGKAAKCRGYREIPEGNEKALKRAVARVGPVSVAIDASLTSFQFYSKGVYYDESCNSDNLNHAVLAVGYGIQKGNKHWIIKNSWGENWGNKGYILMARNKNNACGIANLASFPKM
From the text: Inhibition of Human Cathepsin K Materials: Microtiterplates (Optiplate-384 F were purchased from PerkinElmer (Prod. No. 6007270). The substrate Z-Gly-Pro-Arg-AMC was from Biomol (Prod.-No. P-142). L-Cysteine (Prod. No. 168149) was from Sigma. Sodium actetate was from Merck (Prod.-No. 6268.0250), EDTA was from Fluka (Prod.-No. 03680). The inhibitor E-64 was purchased from Sigma (Prod.-No. E3132). The recombinant human Cathepsin K proenzyme was purchased from Biomol (Prod. No. SE-367). All other materials were of highest grade commercially available.
The following buffers were used: Activation buffer: 32.5 mM sodium acetate, adjusted to pH 3.5 with HCl; Assay buffer: 150 mM sodium acetate, 4 mM EDTA, 20 mM L-Cysteine, adjusted to pH 5.5 with HCl,
To activate the proenzyme, 5 μl procathepsin K were mixed with 1 ul activation buffer, and incubated at room temperature for 30 min.
5 μL test compound (final concentration 0.1 nM to 100 μM) in aqua bidest (containing 4% DMSO, final DMSO concentration 1%) were mixed with 10 uL of Cathepsin K in assay buffer (final concentration 2 ng/μL) and incubated for 10 min. Then 5 μL of substrate in assay buffer (final concentration 12.5 μM) were added. The plates were then incubated at room temperature for 60 min. Then, the reaction was stopped by adding 10 μL of E64 in assay buffer (final concentration 1 μM). The fluorescence in the wells was determined using a Molecular Devices SpectraMax M5 Fluorescence Reader (Ex 360 nm, Em 460 nm).
Each assay microtiter plate contains wells with vehicle controls (1% DMSO in bidest) as reference for non-inhibited enzyme activity (100% Ctl; high values) and wells with inhibitor (E64 in bidest+1% DMSO, final concentration 1 μM) as controls for background fluorescence (0% Ctl; low values). The analysis of the data was performed by calculating the percentage of fluorescence in the presence of test compound in comparison to the fluorescence of the vehicle control after subtracting the background fluorescence: (RFU(sample)−RFU(background))*100/(RFU(control)−RFU(background))
Data from these calculations were used to generate IC50 values for inhibition of Cathepsin K, respectively.

Chain of recombinant human DPPI (P53634 231-394): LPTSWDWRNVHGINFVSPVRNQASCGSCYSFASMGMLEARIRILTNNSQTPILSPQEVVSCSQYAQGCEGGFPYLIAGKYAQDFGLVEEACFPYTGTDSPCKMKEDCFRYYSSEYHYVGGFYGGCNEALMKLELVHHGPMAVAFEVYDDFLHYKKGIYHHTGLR
Chain of recombinant human DPPI (P53634 395-463): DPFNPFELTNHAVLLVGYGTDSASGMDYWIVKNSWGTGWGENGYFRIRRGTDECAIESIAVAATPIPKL
Chain of recombinant human DPPI (P53634 25-134): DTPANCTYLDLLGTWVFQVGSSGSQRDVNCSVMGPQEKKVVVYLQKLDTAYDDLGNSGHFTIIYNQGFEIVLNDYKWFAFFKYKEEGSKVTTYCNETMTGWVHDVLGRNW

| SMILES | IC50 [1] [nM] | IC50 [2] [nM] |
| --- | --- | --- |
| CS(=O)(=O)c1ccc(-c2ccc(C[C@@H](C#N)NC(=O)C34CCC(CC3)CN4)c(F)c2)cc1 [Example 21, N-[(1S)-1-cyano-2-[2-fluoro-4-(4-methanesulfonylphenyl)phenyl]ethyl]-2-azabicyclo[2.2.2]octane-1-carboxamide] | 17 | 800 |
| N#C[C@H](Cc1ccc(-c2ccc3c(c2)CCNC3=O)cc1F)NC(=O)C12CCC(CC1)CN2 [Example 22] | 6.8 | 2300 |
| CN1Cc2cc(-c3ccc(C[C@@H](C#N)NC(=O)C45CCC(CC4)CN5)cc3)ccc2C1=O [Example 4] | 50.1 | 6300 |
| CN1C(=O)Cc2ccc(-c3ccc(C[C@@H](C#N)NC(=O)C45CCC(CC4)CN5)cc3)cc21 [Example 2] | 17.1 | 6700 |

The next compounds have a lower IC50 [1] than those just listed; values first:

| IC50 [1] [nM] | IC50 [2] [nM] | SMILES |
| --- | --- | --- |
| 6.6 | 600 | N#C[C@H](Cc1ccc(-c2ccc3c(c2)NC(=O)C3)cc1F)NC(=O)C12CCC(CC1)CN2 [Example 23] |
| 4.9 | 2200 | CN1C(=O)Cc2ccc(-c3ccc(C[C@@H](C#N)NC(=O)C45CCC(CC4)CN5)c(F)c3)cc21 [Example 28] |
| 4.3 | 1100 | COCCN1C(=O)Cc2ccc(-c3ccc(C[C@@H](C#N)NC(=O)C45CCC(CC4)CN5)c(F)c3)cc21 [Example 26] |
| 4.3 | 800 | N#C[C@H](Cc1ccc(-c2csc(C(N)=O)c2)cc1F)NC(=O)C12CCC(CC1)CN2 [Example 31] |
| 2.2 | 1700 | CC1(C)OC(=O)c2ccc(-c3ccc(C[C@@H](C#N)NC(=O)C45CCC(CC4)CN5)c(F)c3)cc21 [Example 27] |
